Tests used:
ATM(h) = biological target: T1, ATM(h) (Homo sapiens, UniProt Q13315); experiment: Kinase panel; type: biochemical; settings: read-out: % Residual Activity
T1 construct: purchased Eurofins (KinaseProfiler)
Experimental: (§1) Kinome-wide selectivity of rilpivirine was measured using the kinase screening and profiling service of Eurofins Scientific (Le bois l’Evêque 86600. Celle-Lévescault, France) and Ki values were determined using radioisotope-based assays by Reaction Biology Corporation (Malvern, PA, USA). The experimental details of Eurofin Scientific and Reaction Biology services for relevant assays are available at https://www.eurofinsdiscoveryservices.com/services/in-Vitro-assays/kinases/kinase-profiler (accessed on 7 July 2021) and https://www.reactionbiology.com (accessed on 7 July 2021), respectively. Ki values were estimated from the corresponding IC50 values using the Cheng–Prusoff equation [21] and the Km (ATP) of individual kinase was used for IC50 determination.

Arg(h) = biological target: T2, Arg(h) (Homo sapiens, UniProt P42684); experiment: Kinase panel; type: biochemical; settings: read-out: % Residual Activity
T2 construct: purchased Eurofins (KinaseProfiler)
Experimental: as §1

B-Raf(V599E)(h) = biological target: T3, B-Raf(V599E)(h) (Homo sapiens, UniProt P15056, V600E); experiment: Kinase panel; type: biochemical; settings: read-out: % Residual Activity
T3 construct: purchased Eurofins (KinaseProfiler)
Experimental: as §1

BrSK2(h) = biological target: T4, BrSK2(h) (Homo sapiens, UniProt Q8IWQ3); experiment: Kinase panel; type: biochemical; settings: read-out: % Residual Activity
T4 construct: purchased Eurofins (KinaseProfiler)
Experimental: as §1

CHK2(R145W)(h) = biological target: T5, CHK2(R145W)(h) (Homo sapiens, UniProt O96017, R145W); experiment: Kinase panel; type: biochemical; settings: read-out: % Residual Activity
T5 construct: purchased Eurofins (KinaseProfiler)
Experimental: as §1

CaMKIIα(h) = biological target: T6, CaMKIIα(h) (Homo sapiens, UniProt Q9UQM7); experiment: Kinase panel; type: biochemical; settings: read-out: % Residual Activity
T6 construct: purchased Eurofins (KinaseProfiler)
Experimental: as §1

CaMKIIγ(h) = biological target: T7, CaMKIIγ(h) (Homo sapiens, UniProt Q13555); experiment: Kinase panel; type: biochemical; settings: read-out: % Residual Activity
T7 construct: purchased Eurofins (KinaseProfiler)
Experimental: as §1

CaMKIß(h) = biological target: T8, CaMKIß(h) (Homo sapiens, UniProt Q6P2M8); experiment: Kinase panel; type: biochemical; settings: read-out: % Residual Activity
T8 construct: purchased Eurofins (KinaseProfiler)
Experimental: as §1

CaMKIδ(h) = biological target: T9, CaMKIδ(h) (Homo sapiens, UniProt Q8IU85); experiment: Kinase panel; type: biochemical; settings: read-out: % Residual Activity
T9 construct: purchased Eurofins (KinaseProfiler)
Experimental: as §1

DCAMKL2(h) = biological target: T10, DCAMKL2(h) (Homo sapiens, UniProt Q8N568); experiment: Kinase panel; type: biochemical; settings: read-out: % Residual Activity
T10 construct: purchased Eurofins (KinaseProfiler)
Experimental: as §1

DNA-PK(h) = biological target: T11, DNA-PK(h) (Homo sapiens, UniProt P78527); experiment: Kinase panel; type: biochemical; settings: read-out: % Residual Activity
T11 construct: purchased Eurofins (KinaseProfiler)
Experimental: as §1

Flt4(h) = biological target: T12, Flt4(h) (Homo sapiens, UniProt P35916); experiment: Kinase panel; type: biochemical; settings: read-out: % Residual Activity
T12 construct: purchased Eurofins (KinaseProfiler)
Experimental: as §1

GCK(h) = biological target: T13, GCK(h) (Homo sapiens, UniProt Q12851); experiment: Kinase panel; type: biochemical; settings: read-out: % Residual Activity
T13 construct: purchased Eurofins (KinaseProfiler)
Experimental: as §1

JAK1(h) = biological target: T14, JAK1(h) (Homo sapiens, UniProt P23458); experiment: Kinase panel; type: biochemical; settings: read-out: % Residual Activity
T14 construct: purchased Eurofins (KinaseProfiler)
Experimental: as §1

JNK3(h) = biological target: T15, JNK3(h) (Homo sapiens, UniProt P53779); experiment: Kinase panel; type: biochemical; settings: read-out: % Residual Activity
T15 construct: purchased Eurofins (KinaseProfiler)
Experimental: as §1

MAK(h) = biological target: T16, MAK(h) (Homo sapiens, UniProt P20794); experiment: Kinase panel; type: biochemical; settings: read-out: % Residual Activity
T16 construct: purchased Eurofins (KinaseProfiler)
Experimental: as §1

MARK1(h) = biological target: T17, MARK1(h) (Homo sapiens, UniProt Q9P0L2); experiment: Kinase panel; type: biochemical; settings: read-out: % Residual Activity
T17 construct: purchased Eurofins (KinaseProfiler)
Experimental: as §1

MST1(h) = biological target: T18, MST1(h) (Homo sapiens, UniProt Q13043); experiment: Kinase panel; type: biochemical; settings: read-out: % Residual Activity
T18 construct: purchased Eurofins (KinaseProfiler)
T18 sequence (Q13043 whole entry): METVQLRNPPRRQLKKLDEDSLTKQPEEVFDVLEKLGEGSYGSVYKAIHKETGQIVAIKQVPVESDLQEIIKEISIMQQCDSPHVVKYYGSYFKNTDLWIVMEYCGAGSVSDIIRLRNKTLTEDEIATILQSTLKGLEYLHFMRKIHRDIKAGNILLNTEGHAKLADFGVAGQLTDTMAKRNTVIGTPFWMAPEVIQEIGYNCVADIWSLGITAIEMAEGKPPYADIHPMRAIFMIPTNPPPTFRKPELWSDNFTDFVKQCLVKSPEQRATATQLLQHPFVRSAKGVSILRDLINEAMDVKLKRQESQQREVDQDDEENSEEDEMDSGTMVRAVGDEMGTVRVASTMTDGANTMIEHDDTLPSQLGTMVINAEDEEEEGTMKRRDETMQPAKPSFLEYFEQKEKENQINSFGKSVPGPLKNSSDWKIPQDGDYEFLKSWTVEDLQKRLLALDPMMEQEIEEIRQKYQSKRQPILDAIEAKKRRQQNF
Experimental: as §1

NDR1(h) = biological target: T19, NDR1(h) (Homo sapiens, UniProt Q15208); experiment: Kinase panel; type: biochemical; settings: read-out: % Residual Activity
T19 construct: purchased Eurofins (KinaseProfiler)
Experimental: as §1

PAR-1Bα(h) = biological target: T20, PAR-1Bα(h) (Homo sapiens, UniProt Q7KZI7); experiment: Kinase panel; type: biochemical; settings: read-out: % Residual Activity
T20 construct: purchased Eurofins (KinaseProfiler)
Experimental: as §1

[1] = biological target: PI3 Kinase (p110a(H1047R)/p85a)(m) (Mus musculus, UniProt P42337, H1047R); experiment: Kinase panel; type: biochemical; settings: read-out: % Residual Activity
Sequence of PI3 Kinase (p110a(H1047R)/p85a)(m) (P42337 whole entry H1047R): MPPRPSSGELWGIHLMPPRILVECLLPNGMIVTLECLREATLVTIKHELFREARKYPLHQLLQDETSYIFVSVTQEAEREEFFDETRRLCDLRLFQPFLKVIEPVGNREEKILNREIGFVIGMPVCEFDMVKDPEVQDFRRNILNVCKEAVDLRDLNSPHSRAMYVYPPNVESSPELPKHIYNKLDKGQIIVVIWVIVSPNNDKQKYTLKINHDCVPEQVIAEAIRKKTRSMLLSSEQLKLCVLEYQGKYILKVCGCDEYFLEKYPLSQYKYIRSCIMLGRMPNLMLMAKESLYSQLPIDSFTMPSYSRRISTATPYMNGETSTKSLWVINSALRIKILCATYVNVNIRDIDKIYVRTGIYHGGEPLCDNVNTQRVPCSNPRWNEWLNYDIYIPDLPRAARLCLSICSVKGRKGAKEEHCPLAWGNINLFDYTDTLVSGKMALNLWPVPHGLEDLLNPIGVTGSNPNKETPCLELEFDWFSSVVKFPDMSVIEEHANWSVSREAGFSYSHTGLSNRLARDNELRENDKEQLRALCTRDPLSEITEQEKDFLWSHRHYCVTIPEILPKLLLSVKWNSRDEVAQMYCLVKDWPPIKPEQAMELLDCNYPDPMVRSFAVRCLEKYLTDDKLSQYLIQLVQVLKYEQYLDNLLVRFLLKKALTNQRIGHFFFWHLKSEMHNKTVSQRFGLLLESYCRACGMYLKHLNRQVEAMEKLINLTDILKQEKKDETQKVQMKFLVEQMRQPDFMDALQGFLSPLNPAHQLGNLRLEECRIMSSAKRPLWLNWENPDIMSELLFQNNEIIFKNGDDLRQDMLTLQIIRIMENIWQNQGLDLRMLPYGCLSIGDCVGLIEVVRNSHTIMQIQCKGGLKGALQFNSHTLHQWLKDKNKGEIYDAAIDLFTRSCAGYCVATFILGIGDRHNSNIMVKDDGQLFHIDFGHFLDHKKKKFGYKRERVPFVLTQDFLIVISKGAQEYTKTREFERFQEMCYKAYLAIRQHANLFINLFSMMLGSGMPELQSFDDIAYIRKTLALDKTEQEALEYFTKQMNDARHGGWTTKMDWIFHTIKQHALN
Sequence of PI3 Kinase (p110a(H1047R)/p85a)(m) (P26450 whole entry partner): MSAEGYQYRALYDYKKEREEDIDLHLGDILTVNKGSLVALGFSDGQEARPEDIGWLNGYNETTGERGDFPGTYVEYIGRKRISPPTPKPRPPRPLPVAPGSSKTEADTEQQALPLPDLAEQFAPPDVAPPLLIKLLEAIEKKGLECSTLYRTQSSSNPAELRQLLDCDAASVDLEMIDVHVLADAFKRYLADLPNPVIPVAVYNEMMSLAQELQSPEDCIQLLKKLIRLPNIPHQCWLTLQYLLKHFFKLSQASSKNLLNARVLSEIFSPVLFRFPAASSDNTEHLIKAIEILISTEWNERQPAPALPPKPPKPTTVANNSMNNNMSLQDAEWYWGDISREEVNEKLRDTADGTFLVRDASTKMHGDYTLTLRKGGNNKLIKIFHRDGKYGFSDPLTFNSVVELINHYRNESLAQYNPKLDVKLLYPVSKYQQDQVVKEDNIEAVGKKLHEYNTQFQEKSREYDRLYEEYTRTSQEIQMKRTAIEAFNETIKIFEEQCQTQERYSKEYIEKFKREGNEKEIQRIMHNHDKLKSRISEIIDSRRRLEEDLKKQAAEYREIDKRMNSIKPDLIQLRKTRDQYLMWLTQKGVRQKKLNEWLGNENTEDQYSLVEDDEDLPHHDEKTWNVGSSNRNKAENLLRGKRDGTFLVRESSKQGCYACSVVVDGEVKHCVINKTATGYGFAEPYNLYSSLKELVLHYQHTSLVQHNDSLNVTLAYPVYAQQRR
Experimental: as §1

[2] = biological target: PI3 Kinase (p110b/p85b)(m) (Mus musculus, UniProt Q8BTI9); experiment: Kinase panel; type: biochemical; settings: read-out: % Residual Activity
Sequence of PI3 Kinase (p110b/p85b)(m) (Q8BTI9 whole entry): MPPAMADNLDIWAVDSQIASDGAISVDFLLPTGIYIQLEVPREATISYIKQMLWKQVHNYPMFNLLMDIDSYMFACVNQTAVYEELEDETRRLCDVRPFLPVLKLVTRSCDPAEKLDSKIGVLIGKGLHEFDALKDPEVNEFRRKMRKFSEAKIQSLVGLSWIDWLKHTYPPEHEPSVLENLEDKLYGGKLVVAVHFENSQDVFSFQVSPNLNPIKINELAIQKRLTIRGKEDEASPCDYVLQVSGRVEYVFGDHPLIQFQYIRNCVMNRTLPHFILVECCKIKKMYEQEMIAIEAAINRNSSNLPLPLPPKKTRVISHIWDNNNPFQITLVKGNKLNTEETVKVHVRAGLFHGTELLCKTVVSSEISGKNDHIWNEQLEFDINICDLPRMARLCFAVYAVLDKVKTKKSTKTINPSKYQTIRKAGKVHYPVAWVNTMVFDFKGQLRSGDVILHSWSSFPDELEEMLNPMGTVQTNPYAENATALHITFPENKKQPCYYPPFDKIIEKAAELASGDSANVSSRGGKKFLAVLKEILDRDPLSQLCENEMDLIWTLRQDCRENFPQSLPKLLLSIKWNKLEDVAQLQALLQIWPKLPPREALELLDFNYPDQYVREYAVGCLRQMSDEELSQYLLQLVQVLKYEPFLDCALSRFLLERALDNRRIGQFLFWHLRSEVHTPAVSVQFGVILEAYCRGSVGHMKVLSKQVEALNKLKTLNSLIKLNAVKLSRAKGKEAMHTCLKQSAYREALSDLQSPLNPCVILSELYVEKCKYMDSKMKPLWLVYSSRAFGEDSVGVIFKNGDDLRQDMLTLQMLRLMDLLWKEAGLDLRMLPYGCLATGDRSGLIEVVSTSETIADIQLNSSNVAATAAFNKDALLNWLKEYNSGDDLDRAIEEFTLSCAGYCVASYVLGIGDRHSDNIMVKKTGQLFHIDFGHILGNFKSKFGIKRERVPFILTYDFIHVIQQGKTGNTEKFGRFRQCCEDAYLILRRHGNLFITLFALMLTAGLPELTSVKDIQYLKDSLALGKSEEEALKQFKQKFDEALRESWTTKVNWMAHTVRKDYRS
Sequence of PI3 Kinase (p110b/p85b)(m) (O08908 whole entry partner): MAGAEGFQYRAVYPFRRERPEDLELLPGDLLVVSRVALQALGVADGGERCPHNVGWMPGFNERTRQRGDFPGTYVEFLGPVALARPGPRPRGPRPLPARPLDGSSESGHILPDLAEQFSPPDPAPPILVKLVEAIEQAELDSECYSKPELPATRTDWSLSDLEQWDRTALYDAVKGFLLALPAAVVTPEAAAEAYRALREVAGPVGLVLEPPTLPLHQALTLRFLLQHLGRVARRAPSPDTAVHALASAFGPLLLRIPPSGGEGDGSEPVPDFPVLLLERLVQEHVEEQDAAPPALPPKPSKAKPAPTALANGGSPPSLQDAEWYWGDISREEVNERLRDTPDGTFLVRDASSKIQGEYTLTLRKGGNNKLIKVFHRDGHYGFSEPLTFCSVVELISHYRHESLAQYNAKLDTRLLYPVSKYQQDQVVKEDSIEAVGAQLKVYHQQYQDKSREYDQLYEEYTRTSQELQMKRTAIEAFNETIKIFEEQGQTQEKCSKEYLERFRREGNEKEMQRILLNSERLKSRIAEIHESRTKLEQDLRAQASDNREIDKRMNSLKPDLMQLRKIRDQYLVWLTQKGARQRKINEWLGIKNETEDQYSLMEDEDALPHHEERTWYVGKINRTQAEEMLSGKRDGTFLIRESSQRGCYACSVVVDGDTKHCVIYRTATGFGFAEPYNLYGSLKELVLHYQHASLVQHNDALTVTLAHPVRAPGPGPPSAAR
Experimental: as §1

PIP4K2a(h) = PIP4K2a(h) (Homo sapiens, UniProt P48426); experiment: Kinase panel; type: biochemical; settings: read-out: % Residual Activity
Experimental: as §1

PKD3(h) = biological target: T21, PKD3(h) (Homo sapiens, UniProt O94806); experiment: Kinase panel; type: biochemical; settings: read-out: % Residual Activity
T21 construct: purchased Eurofins (KinaseProfiler)
Experimental: as §1

PTK5(h) = biological target: T22, PTK5(h) (Homo sapiens, UniProt P42685); experiment: Kinase panel; type: biochemical; settings: read-out: % Residual Activity
T22 construct: purchased Eurofins (KinaseProfiler)
Experimental: as §1

Rsk4(h) = biological target: T23, Rsk4(h) (Homo sapiens, UniProt Q9UK32); experiment: Kinase panel; type: biochemical; settings: read-out: % Residual Activity
T23 construct: purchased Eurofins (KinaseProfiler)
T23 sequence (Q9UK32 whole entry): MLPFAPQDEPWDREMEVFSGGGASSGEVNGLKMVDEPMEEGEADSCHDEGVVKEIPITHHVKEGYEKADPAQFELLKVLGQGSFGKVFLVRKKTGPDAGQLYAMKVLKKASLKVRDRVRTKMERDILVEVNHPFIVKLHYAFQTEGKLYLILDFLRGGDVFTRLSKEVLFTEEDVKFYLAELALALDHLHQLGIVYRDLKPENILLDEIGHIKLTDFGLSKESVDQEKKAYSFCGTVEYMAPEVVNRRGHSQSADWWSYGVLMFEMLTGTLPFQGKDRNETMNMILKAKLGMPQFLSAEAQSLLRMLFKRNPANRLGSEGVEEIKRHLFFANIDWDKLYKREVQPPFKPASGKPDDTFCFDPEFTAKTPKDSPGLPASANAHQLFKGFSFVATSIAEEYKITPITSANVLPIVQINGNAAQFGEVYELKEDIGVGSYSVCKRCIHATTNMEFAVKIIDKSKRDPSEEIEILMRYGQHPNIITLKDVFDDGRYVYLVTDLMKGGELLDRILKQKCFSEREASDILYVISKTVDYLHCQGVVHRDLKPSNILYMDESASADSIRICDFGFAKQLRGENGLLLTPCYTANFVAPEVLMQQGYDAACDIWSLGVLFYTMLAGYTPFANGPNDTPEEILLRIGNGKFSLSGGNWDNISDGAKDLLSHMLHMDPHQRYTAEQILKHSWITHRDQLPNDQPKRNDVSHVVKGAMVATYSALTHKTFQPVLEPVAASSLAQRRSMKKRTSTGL
Experimental: as §1

SAPK2b(h) = biological target: T24, SAPK2b(h) (Homo sapiens, UniProt Q15759); experiment: Kinase panel; type: biochemical; settings: read-out: % Residual Activity
T24 construct: purchased Eurofins (KinaseProfiler)
Experimental: as §1

SRMS(h) = biological target: T25, SRMS(h) (Homo sapiens, UniProt Q9H3Y6); experiment: Kinase panel; type: biochemical; settings: read-out: % Residual Activity
T25 construct: purchased Eurofins (KinaseProfiler)
Experimental: as §1

Src(1-530)(h) = biological target: T26, Src(1-530)(h) (Homo sapiens, UniProt P12931); experiment: Kinase panel; type: biochemical; settings: read-out: % Residual Activity
T26 construct: purchased Eurofins (KinaseProfiler)
Experimental: as §1

TGFBR2(h) = biological target: T27, TGFBR2(h) (Homo sapiens, UniProt P37173); experiment: Kinase panel; type: biochemical; settings: read-out: % Residual Activity
T27 construct: purchased Eurofins (KinaseProfiler)
Experimental: as §1

TTK(h) = biological target: T28, TTK(h) (Homo sapiens, UniProt P33981); experiment: Kinase panel; type: biochemical; settings: read-out: % Residual Activity
T28 construct: purchased Eurofins (KinaseProfiler)
Experimental: as §1

cKit(V560G)(h) = biological target: T29, cKit(V560G)(h) (Homo sapiens, UniProt P10721, V560G); experiment: Kinase panel; type: biochemical; settings: read-out: % Residual Activity
T29 construct: purchased Eurofins (KinaseProfiler)
Experimental: as §1

CK1(y) = experiment: Kinase panel; type: biochemical, yeast; settings: 1 μM
Experimental: as §1

[3] = In vivo safety profile in HL-60 engrafted mice; parameters: species or system mouse; settings: 200 mg/kg orally, once daily for 14 days
Experimental: Female 6–7-week-old BALB/c nude mice with tumour volumes of 100–200 mm^3 were allocated to two groups (n = 3 per group) and treated with vehicle (0.5% HPMC in water) or rilpivirine (200 mg/kg) daily for 14 days. Upon 24 h post the final dose, mice were humanely killed, and blood, bone marrow, heart, kidney, intestine, liver, and stomach were collected for histopathological analysis. Blood was collected in citrate-treated tubes and a complete blood count was performed by Gribbles Veterinary Pathology (South Australia, Australia). Organs were collected in 10% neutral buffered formalin and stained with hematoxylin and eosin externally by the Hanson Histology Services (South Australia, Australia), while histopathologic analysis was performed by a board-certified pathologist.

Cc1cc(/C=C/C#N)cc(C)c1Nc1ccnc(Nc2ccc(C#N)cc2)n1 [rilpivirine, (E)-4-((4-((4-(2-cyanoethenyl)-2,6-dimethylphenyl)amino)pyrimidin-2-yl)amino)benzonitrile]
remaining activity at 1 µM (ATM(h)): 111% | remaining activity at 1 µM (Arg(h)): 70% | remaining activity at 1 µM (B-Raf(V599E)(h)): 95% | remaining activity at 1 µM (BrSK2(h)): 80% | remaining activity at 1 µM (CHK2(R145W)(h)): 76% | remaining activity at 1 µM (CaMKIIα(h)): 61% | remaining activity at 1 µM (CaMKIIγ(h)): 58% | remaining activity at 1 µM (CaMKIß(h)): 92% | remaining activity at 1 µM (CaMKIδ(h)): 100% | remaining activity at 1 µM (DCAMKL2(h)): 122% | remaining activity at 1 µM (DNA-PK(h)): 95% | remaining activity at 1 µM (Flt4(h)): 101% | remaining activity at 1 µM (GCK(h)): 99% | remaining activity at 1 µM (JAK1(h)): 79% | remaining activity at 1 µM (JNK3(h)): 100% | remaining activity at 1 µM (MAK(h)): 84% | remaining activity at 1 µM (MARK1(h)): 82% | remaining activity at 1 µM (MST1(h)): 84% | remaining activity at 1 µM (NDR1(h)): 89% | remaining activity at 1 µM (PAR-1Bα(h)): 104% | remaining activity at 1 µM [1]: 96% | remaining activity at 1 µM [2]: 97% | remaining activity at 1 µM (PIP4K2a(h)): 103% | remaining activity at 1 µM (PKD3(h)): 76% | remaining activity at 1 µM (PTK5(h)): 32% | remaining activity at 1 µM (Rsk4(h)): 99% | remaining activity at 1 µM (SAPK2b(h)): 98% | remaining activity at 1 µM (SRMS(h)): 55% | remaining activity at 1 µM (Src(1-530)(h)): 31% | remaining activity at 1 µM (TGFBR2(h)): 94% | remaining activity at 1 µM (TTK(h)): 71% | remaining activity at 1 µM (cKit(V560G)(h)): 74% | % Residual Activity (CK1(y)): 92% | complete blood count (red blood cells, neutrophils, lymphocytes, platelets) [3]: did not show any noticeable effects | histopathology of major organs [3]: did not cause any tissue damage in major organs

From paper PMC9954146, “Anti-Leukaemic Activity of Rilpivirine Is Mediated by Aurora A Kinase Inhibition” (Cancers, 2023)
